Source: patent publication US8287923B2, “Compositions and methods for treating immune disorders” (priority 2005, dated 2012)

Tested on: normal human epidermal keratinocytes (NHEK)
Assay: Affymetrix gene array analysis, autoantigen gene expression
Format: cell-based
Procedure: The gene array experiment was performed at the Core Facility of Genomics of the Medical College of Georgia, according to the instructions of the manufacturer (Affymetrix, Santa Clara, Calif.). Briefly, NHEK and OSC2 cells treated with 100 μM EGCG for different time period were extracted for total RNA, the RNA was processed for probes and hybridized with a cDNA microarray (HuG133A, Affymetrix) which represents 22,283 human series. DNA chips were read with a Hewlett-Packard GeneArray Scanner at a resolution of […] and were analyzed with the GeneSpring software (Silicon Genetics, Redwood City, Calif.). Details of this analysis will be published elsewhere (Hsu et al., manuscript in preparation).
Gene assays provide a valuable tool for studying the broad response of cells to agents, and we have used this approach to compare the differential effects of GTPP on gene expression in NHEK and human oral squamous carcinoma cells (Hsu, et al, manuscript in preparation). […] See also Hsu, S. et al. (2005) JPET 315:805-811, which is incorporated by reference in its entirety.

O=C(O[C@@H]1Cc2c(O)cc(O)cc2O[C@@H]1c1cc(O)c(O)c(O)c1)c1cc(O)c(O)c(O)c1 [EGCG, (−)-epigallocatechin-3-gallate]
Ku autoantigen, 80 kDa (208642_s_at) expression, normalized (24 h, 100 μM): 0.73 | Ku autoantigen, 80 kDa (208643_s_at) expression, normalized (24 h, 100 μM): 0.77 | Nuclear antigen SP100 (202863_at) expression, normalized (24 h, 100 μM): 0.36 | Nuclear antigen SP100 (202864_s_at) expression, normalized (24 h, 100 μM): 0.08 | Nuclear antigen SP10075 kDa (213226_at) expression, normalized (24 h, 100 μM): 0.50 | RNA polymerase 1 (202692_s-at) expression, normalized (24 h, 100 μM): 0.55 | SS-B/La (201138_s_at) expression, normalized (24 h, 100 μM): 0.27 | SS-B/La (201139_s_at) expression, normalized (24 h, 100 μM): 0.26 | centromere protein C1 (20473_at) expression, normalized (24 h, 100 μM): 0.94 | coilin (203653_s_at) expression, normalized (24 h, 100 μM): 0.79 | coilin (203654_s_at) expression, normalized (24 h, 100 μM): 0.79 | fodrin-α (208611_s_at) expression, normalized (24 h, 100 μM): 0.42 | fodrin-α (215235_s_at) expression, normalized (24 h, 100 μM): 0.71 | golgin-67 (208797_s_at) expression, normalized (24 h, 100 μM): 0.29 | golgin-67 (208798_x_at) expression, normalized (24 h, 100 μM): 0.31 | golgin-67 (210425_x_at) expression, normalized (24 h, 100 μM): 0.31 | golgin-67 (213650_at) expression, normalized (24 h, 100 μM): 0.72 | scleroderma autoantigen 1, 75 kDa (213226_at) expression, normalized (24 h, 100 μM): 0.50 | spectrin-β non-erythrocyctic 1 (212071_s_at) expression, normalized (24 h, 100 μM): 0.72 | thyroid autoantigen 70 kDa (Ku antigen) (200792_at) expression, normalized (24 h, 100 μM): 0.79 | ADPRT [poly(ADP)-ribose polymerase] expression (24 h, 100 μM, vs time zero): 0.85 fold | ANAP12 expression (24 h, 100 μM, vs time zero): 0.198 fold | ANXA11 expression (24 h, 100 μM, vs time zero): 1.946 fold | CALR expression (24 h, 100 μM, vs time zero): 1.528 fold | CBARA1 expression (24 h, 100 μM, vs time zero): 0.721 fold | CENPA expression (24 h, 100 μM, vs time zero): 0.673 fold | CENPB expression (24 h, 100 μM, vs time zero): 0.721 fold | CENPC1 expression (24 h, 100 μM, vs time zero): 0.936 fold | CHD4 expression (24 h, 100 μM, vs time zero): 0.84 fold | COL17A1 expression (24 h, 100 μM, vs time zero): 0.684 fold | CTDSP1 expression (24 h, 100 μM, vs time zero): 1.39 fold | CTDSP2 expression (24 h, 100 μM, vs time zero): 1.71 fold | CTDSPL expression (24 h, 100 μM, vs time zero): 2.10 fold | DLAT expression (24 h, 100 μM, vs time zero): 0.751 fold | EPPK1 expression (24 h, 100 μM, vs time zero): 0.889 fold | FBL expression (24 h, 100 μM, vs time zero): 0.69 fold | FLJ31657 expression (24 h, 100 μM, vs time zero): 0.959 fold | FLNB (Filamin B, β) expression (24 h, 100 μM, vs time zero): 0.249 fold | FLNB (Filamin B, γ) expression (24 h, 100 μM, vs time zero): 0.243 fold | G22P1 (Thyroid autoantigen, 70 kDa, Ku antigen) expression (24 h, 100 μM, vs time zero): 0.792 fold | GMEB2 expression (24 h, 100 μM, vs time zero): 0.745 fold | GOLGA1 expression (24 h, 100 μM, vs time zero): 0.9 fold | GOLGA2 expression (24 h, 100 μM, vs time zero): 0.949 fold | GOLGA3 expression (24 h, 100 μM, vs time zero): 0.419 fold | GOLGA4 expression (24 h, 100 μM, vs time zero): 0.664 fold | GOLGA5 expression (24 h, 100 μM, vs time zero): 1.494 fold | GOLGB1 expression (24 h, 100 μM, vs time zero): 0.688 fold | HARS expression (24 h, 100 μM, vs time zero): 0.72 fold | HARSL expression (24 h, 100 μM, vs time zero): 1.00 fold | HSA6591 expression (24 h, 100 μM, vs time zero): 0.562 fold | HUMAUANTIG expression (24 h, 100 μM, vs time zero): 0.517 fold | IMP-2 expression (24 h, 100 μM, vs time zero): 0.665 fold | LAD1 expression (24 h, 100 μM, vs time zero): 0.553 fold | LMO4 expression (repeat 1) (24 h, 100 μM, vs time zero): 1.011 fold | LMO4 expression (repeat 2) (24 h, 100 μM, vs time zero): 0.659 fold | MGC5560 expression (repeat 1) (24 h, 100 μM, vs time zero): 0.81 fold | MGC5560 expression (repeat 2) (24 h, 100 μM, vs time zero): 0.552 fold | NS (Nucleostemin) expression (24 h, 100 μM, vs time zero): 0.814 fold | PDHB expression (24 h, 100 μM, vs time zero): 0.818 fold | PDX1 expression (24 h, 100 μM, vs time zero): 0.903 fold | PMSCL1, 75 kDa expression (24 h, 100 μM, vs time zero): 0.496 fold | PMSCL2 expression (24 h, 100 μM, vs time zero): 0.717 fold | POLR1B expression (24 h, 100 μM, vs time zero): 1.04 fold | POLR1D expression (24 h, 100 μM, vs time zero): 1.31 fold | POLR2A expression (repeat 1) (24 h, 100 μM, vs time zero): 1.02 fold | POLR2A expression (repeat 2) (24 h, 100 μM, vs time zero): 1.17 fold | POLR2B expression (24 h, 100 μM, vs time zero): 0.74 fold | POLR2C expression (24 h, 100 μM, vs time zero): 1.66 fold | POLR2D expression (24 h, 100 μM, vs time zero): 0.29 fold | POLR2E expression (24 h, 100 μM, vs time zero): 0.39 fold | POLR2F expression (24 h, 100 μM, vs time zero): 0.80 fold | POLR2G expression (24 h, 100 μM, vs time zero): 0.89 fold | POLR2H expression (24 h, 100 μM, vs time zero): 1.15 fold | POLR3C expression (24 h, 100 μM, vs time zero): 0.49 fold | POLR3G expression (24 h, 100 μM, vs time zero): 0.47 fold | PSME3 expression (24 h, 100 μM, vs time zero): 0.421 fold | RALY expression (24 h, 100 μM, vs time zero): 0.612 fold | SART1 expression (24 h, 100 μM, vs time zero): 0.98 fold | SLC25A16 expression (24 h, 100 μM, vs time zero): 1.144 fold | SNRP70 expression (24 h, 100 μM, vs time zero): 0.51 fold | SNRPA expression (24 h, 100 μM, vs time zero): 0.32 fold | SNRPB2 expression (24 h, 100 μM, vs time zero): 0.82 fold | SNRPB expression (repeat 1) (24 h, 100 μM, vs time zero): 0.52 fold | SNRPB expression (repeat 2) (24 h, 100 μM, vs time zero): 0.42 fold | SNRPC expression (24 h, 100 μM, vs time zero): 1.12 fold | SNRPD1 expression (repeat 1) (24 h, 100 μM, vs time zero): 0.425 fold | SNRPD1 expression (repeat 2) (24 h, 100 μM, vs time zero): 0.517 fold | SOX13 expression (24 h, 100 μM, vs time zero): 1.582 fold | SP100 expression (repeat 1) (24 h, 100 μM, vs time zero): 0.356 fold | SP100 expression (repeat 2) (24 h, 100 μM, vs time zero): 0.079 fold | SP110 expression (repeat 1) (24 h, 100 μM, vs time zero): 0.978 fold | SP110 expression (repeat 2) (24 h, 100 μM, vs time zero): 0.654 fold | SP110 expression (repeat 3) (24 h, 100 μM, vs time zero): 0.621 fold | SPTAN1 (α-fodrin) expression (repeat 1) (24 h, 100 μM, vs time zero): 0.42 fold | SPTAN1 (α-fodrin) expression (repeat 2) (24 h, 100 μM, vs time zero): 0.71 fold | SPTBN expression (24 h, 100 μM, vs time zero): 0.72 fold | SSA2 (autoantigen SS-A/Ro) expression (repeat 2) (24 h, 100 μM, vs time zero): 0.88 fold | SSA2 expression (repeat 1) (24 h, 100 μM, vs time zero): 1.17 fold | SSA2 expression (repeat 3) (24 h, 100 μM, vs time zero): 1.556 fold | SSA2 expression (repeat 4) (24 h, 100 μM, vs time zero): 0.94 fold | SSB (autoantigen La) expression (repeat 1) (24 h, 100 μM, vs time zero): 0.273 fold | SSB (autoantigen La) expression (repeat 2) (24 h, 100 μM, vs time zero): 0.257 fold | SSNA1 expression (24 h, 100 μM, vs time zero): 0.943 fold | SSSCA1 expression (24 h, 100 μM, vs time zero): 1.228 fold | STRN3 expression (24 h, 100 μM, vs time zero): 0.759 fold | TOP1 expression (repeat 1) (24 h, 100 μM, vs time zero): 0.12 fold | TOP1 expression (repeat 2) (24 h, 100 μM, vs time zero): 0.43 fold | UBTF expression (24 h, 100 μM, vs time zero): 0.546 fold | XRCC5 (Ku autoantigen, 80 kDa) expression (repeat 1) (24 h, 100 μM, vs time zero): 0.771 fold | XRCC5 (Ku autoantigen, 80 kDa) expression (repeat 2) (24 h, 100 μM, vs time zero): 0.725 fold | dJ963E22.1 expression (24 h, 100 μM, vs time zero): 0.88 fold | α-NAC expression (24 h, 100 μM, vs time zero): 0.469 fold | rapid initial increase of nuclear antigen SP100 and scleroderma autoantigen 1 mRNA (followed by a 2-fold or greater decrease): 2-4 fold | decrease in mRNA levels of RNA polymerase I, SS-B/La, alpha-fodrin and golgin-67 (rapid (0.5-2 hr initiation) and persistent during the 24 hr period): ≥ 2 fold | 60 kDa SS-A/Ro mRNA level (time course up to 24 hr): did not decline significantly
